Laboratory results taken from ChEMBL document CHEMBL3526061, “Glucuronidation of edaravone by human liver and kidney microsomes: biphasic kinetics and identification of UGT1A9 as the major UDP-glucuronosyltransferase isoform” (Drug Metab Dispos, 2012).

Legend:
Assay type in all cases: ADME
[1] = target: T1, UDP-glucuronosyltransferase 1A9 (Homo sapiens, UniProt O60656); assay: Activity of human recombinant UGT1A9 expressed in insect cells assessed as enzyme mediated glucuronidation at 500 uM by LC-MS/MS method
T1 sequence (O60656 whole entry): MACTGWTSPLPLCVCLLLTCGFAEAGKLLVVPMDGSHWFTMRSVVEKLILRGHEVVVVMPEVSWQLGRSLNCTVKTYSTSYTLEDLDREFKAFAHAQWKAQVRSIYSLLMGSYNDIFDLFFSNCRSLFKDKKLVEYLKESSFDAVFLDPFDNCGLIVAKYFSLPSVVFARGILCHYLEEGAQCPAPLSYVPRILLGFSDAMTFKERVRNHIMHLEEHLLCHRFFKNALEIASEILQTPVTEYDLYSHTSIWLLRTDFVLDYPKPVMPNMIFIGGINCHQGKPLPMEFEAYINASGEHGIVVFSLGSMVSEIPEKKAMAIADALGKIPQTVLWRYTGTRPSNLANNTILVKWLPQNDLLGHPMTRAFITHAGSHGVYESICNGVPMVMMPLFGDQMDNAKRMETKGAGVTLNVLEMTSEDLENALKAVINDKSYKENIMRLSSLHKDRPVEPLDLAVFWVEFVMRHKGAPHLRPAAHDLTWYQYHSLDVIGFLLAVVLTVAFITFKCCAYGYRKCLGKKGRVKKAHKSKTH

[2] = Drug metabolism in human kidney microsomes assessed as drug glucuronidation per mg tissue in presence of BSA by LC-MS/MS method
Liver microsome [3] = assay: Drug metabolism in human liver microsomes assessed as drug glucuronidation in presence of 100 to 1000 uM propofol by LC-MS/MS method
[4] = target: T2, UDP-glucuronosyltransferase 2B7 (Homo sapiens, UniProt P16662); assay: Activity of human recombinant UGT2B7 expressed in insect cells assessed as intrinsic clearance for enzyme mediated glucuronidation per mg protein by LC-MS/MS method
T2 sequence (P16662 whole entry): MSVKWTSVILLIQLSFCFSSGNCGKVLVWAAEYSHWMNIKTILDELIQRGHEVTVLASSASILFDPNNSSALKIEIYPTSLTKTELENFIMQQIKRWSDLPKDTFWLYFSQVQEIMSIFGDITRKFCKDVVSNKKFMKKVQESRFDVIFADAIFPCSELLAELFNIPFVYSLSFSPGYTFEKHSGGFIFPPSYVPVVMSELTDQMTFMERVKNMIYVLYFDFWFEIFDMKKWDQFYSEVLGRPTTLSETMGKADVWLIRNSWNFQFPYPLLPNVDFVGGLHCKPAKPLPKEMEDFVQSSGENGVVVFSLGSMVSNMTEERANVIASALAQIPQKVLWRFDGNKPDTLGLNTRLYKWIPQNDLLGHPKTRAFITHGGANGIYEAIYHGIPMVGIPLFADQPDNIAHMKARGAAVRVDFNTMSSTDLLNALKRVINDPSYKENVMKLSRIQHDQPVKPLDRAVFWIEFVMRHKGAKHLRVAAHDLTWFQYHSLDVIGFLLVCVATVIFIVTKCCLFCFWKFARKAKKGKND

[5] = target: T3, UDP-glucuronosyltransferase 2B17 (Homo sapiens, UniProt O75795); assay: Activity of human recombinant UGT2B17 expressed in insect cells assessed as intrinsic clearance for enzyme mediated glucuronidation per mg protein by LC-MS/MS method
T3 sequence (O75795 whole entry): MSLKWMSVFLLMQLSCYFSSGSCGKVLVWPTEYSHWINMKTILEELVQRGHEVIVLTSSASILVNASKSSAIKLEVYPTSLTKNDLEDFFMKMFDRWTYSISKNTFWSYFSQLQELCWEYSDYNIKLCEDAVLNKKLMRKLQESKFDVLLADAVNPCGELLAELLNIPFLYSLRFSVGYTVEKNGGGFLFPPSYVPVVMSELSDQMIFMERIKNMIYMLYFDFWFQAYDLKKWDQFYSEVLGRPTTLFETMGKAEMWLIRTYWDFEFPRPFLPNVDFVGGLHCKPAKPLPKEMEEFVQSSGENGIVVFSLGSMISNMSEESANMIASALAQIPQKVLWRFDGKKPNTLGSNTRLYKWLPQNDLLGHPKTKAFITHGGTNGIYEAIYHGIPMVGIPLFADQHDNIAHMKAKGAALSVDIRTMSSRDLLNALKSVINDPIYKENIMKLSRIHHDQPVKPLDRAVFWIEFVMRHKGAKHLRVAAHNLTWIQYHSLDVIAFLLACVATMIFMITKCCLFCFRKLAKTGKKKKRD

Liver microsome [6] = assay: Drug metabolism in human liver microsomes assessed as drug glucuronidation in presence of […] naloxone by LC-MS/MS method
[7] = target: T4, UDP-glucuronosyltransferase 1A7 (Homo sapiens, UniProt Q9HAW7); assay: Activity of human recombinant UGT1A7 expressed in insect cells assessed as enzyme mediated glucuronidation at 500 uM by LC-MS/MS method
T4 sequence (Q9HAW7 whole entry): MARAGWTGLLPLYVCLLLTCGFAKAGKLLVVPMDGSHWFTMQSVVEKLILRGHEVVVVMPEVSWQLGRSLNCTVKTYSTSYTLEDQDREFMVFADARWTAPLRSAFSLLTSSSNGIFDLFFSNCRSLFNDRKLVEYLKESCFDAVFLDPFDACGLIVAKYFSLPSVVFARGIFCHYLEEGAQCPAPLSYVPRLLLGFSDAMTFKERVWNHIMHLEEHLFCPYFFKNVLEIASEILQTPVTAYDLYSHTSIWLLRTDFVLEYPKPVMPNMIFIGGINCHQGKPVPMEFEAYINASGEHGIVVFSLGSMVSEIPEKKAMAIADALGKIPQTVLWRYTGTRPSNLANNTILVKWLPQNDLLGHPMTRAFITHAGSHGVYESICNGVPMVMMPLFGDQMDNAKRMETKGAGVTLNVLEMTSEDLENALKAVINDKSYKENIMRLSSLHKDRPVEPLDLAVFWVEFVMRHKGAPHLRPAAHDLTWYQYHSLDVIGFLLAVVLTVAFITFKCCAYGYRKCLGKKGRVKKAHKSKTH

- Drug metabolism [1]: metabolite_detected
- VmaxH [2]: 696 pmol/min/g
- VmaxL [2]: 5265 pmol/min/g
- Drug metabolism (Liver microsome [3]): metabolite_not_detected
- CL [4]: 0.7 µL/min/g
- CL [5]: 3.3 µL/min/g
- Drug metabolism (Liver microsome [6]): metabolite_detected
- Drug metabolism [7]: metabolite_detected
SMILES: CC1=NN(c2ccccc2)C(=O)C1 [EDARAVONE]
